# Values of other authors in patent US20100137787A1, “Delivery devices for modulating inflammation” (Searete LLC, a limited liability corporation of the State …, priority 2008, published 2010).
# Key:
# [1] = single agent, infused at 400 mg over one hour
# [2] = target: Toll-like receptor 4 (Homo sapiens, UniProt O00206)
# [3] = system: aldehyde dehydrogenase
# Toll-like receptor 4, sequence (O00206 24-839, species assumed): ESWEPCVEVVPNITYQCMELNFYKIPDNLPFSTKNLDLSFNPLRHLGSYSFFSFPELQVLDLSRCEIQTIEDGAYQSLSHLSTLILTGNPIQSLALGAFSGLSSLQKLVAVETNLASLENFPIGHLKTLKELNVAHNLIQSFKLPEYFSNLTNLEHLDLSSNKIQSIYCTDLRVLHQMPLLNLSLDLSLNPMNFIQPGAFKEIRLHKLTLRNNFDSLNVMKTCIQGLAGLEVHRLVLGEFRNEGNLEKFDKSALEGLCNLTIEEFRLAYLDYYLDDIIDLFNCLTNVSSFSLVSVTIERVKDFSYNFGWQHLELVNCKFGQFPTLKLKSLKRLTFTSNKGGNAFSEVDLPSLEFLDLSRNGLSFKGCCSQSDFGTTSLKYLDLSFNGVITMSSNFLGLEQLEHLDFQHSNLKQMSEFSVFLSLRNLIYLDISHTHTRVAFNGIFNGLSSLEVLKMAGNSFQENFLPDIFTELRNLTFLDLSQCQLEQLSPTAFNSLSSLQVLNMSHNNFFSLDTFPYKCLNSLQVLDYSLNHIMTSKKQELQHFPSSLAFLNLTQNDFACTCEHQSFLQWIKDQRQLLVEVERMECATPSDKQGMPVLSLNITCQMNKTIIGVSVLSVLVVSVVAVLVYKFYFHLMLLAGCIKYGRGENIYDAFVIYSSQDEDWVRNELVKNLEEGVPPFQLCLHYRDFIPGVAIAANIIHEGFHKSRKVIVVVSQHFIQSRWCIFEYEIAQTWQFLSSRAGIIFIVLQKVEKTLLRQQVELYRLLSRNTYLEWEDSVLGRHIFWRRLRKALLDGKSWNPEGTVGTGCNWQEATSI
compound,measurement,setting,value
"CCN(CC)CCCC(C)Nc1ccnc2cc(Cl)ccc12.O=P(O)(O)O.O=P(O)(O)O (stereo not shown) [chloroquine phosphate, 7-chloro-4-[[4-(diethylamino)-1-methylbutyl]amino]quinoline phosphate (1:2)]",tolerability of infusion,[1],without complication
"Cl.Cl.Nc1ccccc1Oc1ccc2c(N)nsc2c1 [Example M62812, 3-amino-6-(2-aminophenoxy)-1,2-benzisothiazole dihydrochloride]",inhibitor of Toll-like receptor 4,[2],inhibitor of Toll-like receptor 4
"CCN(CC)C(=S)SSC(=S)N(CC)CC [disulfiram, 1-(diethylthiocarbamoyldisulfanyl)-N,N-diethyl-methanethioamide]",inhibition of aldehyde dehydrogenase,[3],inhibits
same,toxicity accompanying aldehyde dehydrogenase inhibition,[3],without toxicity
